Test results taken from patent publication US9795139B2, “Molecules having pesticidal utility, and intermediates, compositions, and processes, related thereto” (priority 2015, dated 2017).

Legend:
Type in all cases: in vivo
[1] = tested on: Beet Armyworm (Spodoptera exigua, LAPHEG); assay: Bioassay on Beet Armyworm (BAW), 128-well diet tray assay; settings: 168 h, 50 μg/cm^2 on artificial diet, second instar larvae, 25° C., five to seven days, average of eight wells, read-out: BAW % Control (or Mortality) rating
Method in brief: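 Diet in each of eight wells received 50 μg/cm^2 of test molecule (90:10 acetone-water, dried), then one to five second-instar larvae were added. Mortality (%) was scored after five to seven days at 25° C. under 14:10 light-dark and averaged across the wells.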

[2] = tested on: Yellow Fever Mosquito (Aedes aegypti, AEDSAE); settings: about 1 day-old larvae, 96-well plate from 4000 ppm DMSO master, 3 days at room temperature
Method in brief: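 Aedes aegypti larvae (about 1 day old) in liver-powder water were added to plates dispensed from DMSO master plates (4000 ppm stock) diluted with 90:10 water/acetone; six replicate plates per master. Lidded plates were held at room temperature for 3 days, then each well was scored for mortality.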

[3] = tested on: Cabbage Looper (Trichoplusia ni, TRIPNI); assay: Bioassay on Cabbage Looper (CL), 128-well diet tray assay; settings: 168 h, 50 μg/cm^2 on artificial diet, second instar larvae, 25° C., five to seven days, average of eight wells, read-out: CL % Control (or Mortality) rating
Method in brief: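 Second-instar larvae, one to five per well, placed on artificial diet treated with 50 μg/cm^2 test molecule in 90:10 acetone-water, dried before infestation. Held 5–7 days at 25° C, 14:10 light-dark; percent mortality averaged over eight wells.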

Row | SMILES | mortality at 50 µg/cm2 [1] [%] | YFM % Control (or Mortality) rating [2] | mortality at 50 µg/cm2 [3] [%]
1 | N#CC1(NC(=O)c2cc(NC(=O)[C@H]3[C@H](c4ccc(C(F)F)c(Cl)c4)C3(Cl)Cl)ccc2Cl)CC1 (relative stereo) [Molecule F89, trans-2-Chloro-N-(1-cyanocyclopropyl)-5-(2,2-dichloro-3-(3-chloro-4-(difluoromethyl)phenyl)cyclopropane-1-carboxamido)benzamide] | 50 to 100 | A (80-100) | 50 to 100
2 | O=C(NC1CC(F)(F)C1)c1cc(NC(=O)[C@H]2[C@H](c3cc(Cl)cc(Cl)c3)C2(Cl)Cl)ccc1Cl [Molecule F73, 2-Chloro-5-((1R,3R)-2,2-dichloro-3-(3,5-dichlorophenyl)cyclopropanecarbox-amido)-N-(3,3-difluorocyclobutyl)benzamide] | 50 to 100 | A (80-100) | 50 to 100
3 | O=C1CCC(NC(=O)c2cc(NC(=O)[C@H]3[C@H](c4ccc(F)c(Cl)c4)C3(Cl)Cl)ccc2Cl)CC1 (relative stereo) [Molecule F81, trans-2-Chloro-5-(2,2-dichloro-3-(3-chloro-4-fluorophenyl)cyclopropane-1-carboxamido)-N-(4-oxocyclohexyl)benzamide] | 50 to 100 | A (80-100) | 50 to 100
4 | CN(C(=O)c1cc(NC(=O)[C@H]2[C@H](c3ccc(Cl)c(Cl)c3)C2(Cl)Cl)ccc1Cl)C1CC(F)(F)C1 (relative stereo) [Molecule F33, trans-2-Chloro-5-(2,2-dichloro-3-(3,4-dichlorophenyl)cyclopropanecarboxamido)-N-(3,3-difluorocyclobutyl)-N-methylbenzamide] | 50 to 100 | A (80-100) | 50 to 100
5 | N#CC1(NC(=O)c2cc(NC(=O)[C@H]3[C@H](c4cccc(C(F)F)c4)C3(Cl)Cl)ccc2Cl)CC1 (relative stereo) [Molecule F91, trans-2-Chloro-N-(1-cyanocyclopropyl)-5-(2,2-dichloro-3-(3-(difluoromethyl)-phenyl)cyclopropane-1-carboxamido)benzamide] | 50 to 100 | A (80-100) | 50 to 100
6 | O=C(NC1CC(F)(F)C1)c1cc(NC(=O)[C@H]2[C@H](c3ccc([N+](=O)[O-])cc3)C2(Cl)Cl)ccc1Cl (relative stereo) [Molecule F69, trans-2-chloro-5-(2,2-dichloro-3-(4-nitrophenyl)cyclopropane-1-carboxamido)-N-(3,3-difluorocyclobutyl)benzamide] | 50 to 100 | A (80-100) | 50 to 100
7 | O=C(N[C@@H]1CON(CC(F)(F)F)C1=O)c1cc(NC(=O)C2C(c3cc(Cl)c(Cl)c(Cl)c3)C2(Cl)Cl)ccc1Cl (stereo in doubt) [Molecule F80, trans-2-Chloro-5-(2,2-dichloro-3-(3,4,5-trichlorophenyl)cyclopropane-1-carboxamido)-N—((R)-3-oxo-2-(2,2,2-trifluoroethyl)isoxazolidin-4-yl)benzamide] | 50 to 100 | A (80-100) | 50 to 100
8 | N#CC1(NC(=O)c2cc(NC(=O)[C@H]3[C@H](c4ccc(Br)c(Cl)c4)C3(Cl)Cl)ccc2Cl)CC1 (relative stereo) [Molecule F66, trans-5-(3-(4-bromo-3-chlorophenyl)-2,2-dichlorocyclopropane-1-carboxamido)-2-chloro-N-(1-cyanocyclopropyl)benzamide] | 50 to 100 | A (80-100) | 50 to 100
9 | COc1c(F)cc([C@H]2[C@H](C(=O)Nc3ccc(Cl)c(C(=O)NC4(C#N)CC4)c3)C2(Cl)Cl)cc1Br (relative stereo) [Molecule F84, trans-5-(3-(3-Bromo-5-fluoro-4-methoxyphenyl)-2,2-dichlorocyclopropane-1-carboxamido)-2-chloro-N-(1-cyanocyclopropyl)benzamide] | 50 to 100 | A (80-100) | 50 to 100
10 | CC(C)(C)OC(=O)N1CC(NC(=O)c2cc(NC(=O)[C@H]3[C@H](c4cc(Cl)cc(Cl)c4)C3(Cl)Cl)ccc2Cl)C1 (relative stereo) [Molecule F54, trans-tert-butyl 3-(2-chloro-5-(2,2-dichloro-3-(3,5-dichlorophenyl)cyclopropanecarboxamido)-benzamido)azetidine-1-carboxylate] | 50 to 100 | D (No activity noticed in this bioassay) | 50 to 100
11 | O=C(NC1CC(F)(F)C1)c1cc(NC(=O)[C@H]2[C@H](c3cc(Cl)cc(Cl)c3)C2(Br)Br)ccc1Cl (relative stereo) [PF31, trans-2-Chloro-5-(2,2-dibromo-3-(3,5-dichlorophenyl)cyclopropane-1-carboxamido)-N-(3,3-difluorocyclobutyl)benzamide] | 50 to 100 | B (More than 0-Less than 80) | 50 to 100
12 | O=C(NN1CC(CN2CCOCC2)OC1=O)c1cc(NC(=O)C2C(c3cc(Cl)cc(Cl)c3)C2(Cl)Cl)ccc1Cl (stereo not drawn) [PF41, trans-2-Chloro-5-(2,2-dichloro-3-(3,5-dichlorophenyl)cyclopropane-1-carbox-amido)-N-(5-(morpholinomethyl)-2-oxooxazolidin-3-yl)benzamide] | 0 to 50 | A (80-100) | 50 to 100
13 | N#CC1CCC(NC(=O)c2cc(NC(=O)[C@H]3[C@H](c4cc(Cl)c(Cl)c(Cl)c4)C3(Cl)Cl)ccc2Cl)C1 (relative stereo) [Molecule F39, trans-2-Chloro-N-(3-cyanocyclopentyl)-5-(2,2-dichloro-3-(3,4,5-trichlorophenyl)cyclopropanecarboxamido)benzamide] | 50 to 100 | A (80-100) | 50 to 100
14 | N#CC1CCC(NC(=O)c2cc(NC(=O)[C@H]3[C@H](c4ccc(Cl)c(Cl)c4)C3(Cl)Cl)ccc2Cl)C1 (relative stereo) [Molecule F36, trans-2-Chloro-N-(3-cyanocyclopentyl)-5-(2,2-dichloro-3-(3,4-dichlorophenyl)cyclopropanecarboxamido)benzamide] | 50 to 100 | B (More than 0-Less than 80) | 50 to 100
15 | O=C(NC1CCSC1=O)c1cc(NC(=O)C2C(c3cc(Cl)cc(Cl)c3)C2(Cl)Cl)ccc1Cl (stereo not drawn) [PF36, trans-2-Chloro-5-(2,2-dichloro-3-(3,5-dichlorophenyl)cyclopropane-1-carbox-amido)-N-(2-oxotetrahydrothiophen-3-yl)benzamide] | 50 to 100 | A (80-100) | 50 to 100
16 | N#CC1(NC(=O)c2cc(NC(=O)[C@@H]3[C@@H](c4cc(Cl)c(Cl)c(Cl)c4)C3(Cl)Cl)ccc2Cl)CC1 [Molecule F64, 2-Chloro-N-(1-cyanocyclopropyl)-5-((1S,3S)-2,2-dichloro-3-(3,4,5-trichloro-phenyl)cyclopropane-1-carboxamido)benzamide] | 50 to 100 | A (80-100) | 50 to 100
17 | CCNC(=O)C1(NC(=O)c2cc(NC(=O)C3C(c4cc(Cl)cc(Cl)c4)C3(Cl)Cl)ccc2Cl)CC1 (stereo not drawn) [PF43, trans-2-Chloro-5-(2,2-dichloro-3-(3,5-dichlorophenyl)cyclopropane-1-carbox-amido)-N-(1-(ethylcarbamoyl)cyclopropyl)benzamide] | 50 to 100 | A (80-100) | 50 to 100
18 | CCN1OC[C@@H](NC(=O)c2cc(NC(=O)C3C(c4cc(Cl)cc(Cl)c4)C3(Cl)Cl)ccc2Cl)C1=O (stereo partly drawn) [PF45, trans-2-Chloro-5-(2,2-dichloro-3-(3,5-dichlorophenyl)cyclopropane-1-carbox-amido)-N—((R)-2-ethyl-3-oxoisoxazolidin-4-yl)benzamide] | 50 to 100 | A (80-100) | 50 to 100
19 | O=C(N[C@@H]1CON(CC(F)(F)F)C1=O)c1cc(NC(=O)C2C(c3cc(Cl)cc(Cl)c3)C2(Cl)Cl)ccc1Cl (stereo partly drawn) [PF28, trans-2-Chloro-5-(2,2-dichloro-3-(3,5-dichlorophenyl)cyclopropane-1-carbox-amido)-N—((R)-3-oxo-2-(2,2,2-trifluoroethyl)isoxazolidin-4-yl)benzamide] | 50 to 100 | A (80-100) | 50 to 100
20 | O=C(NC1CC[S+]([O-])C1)c1cc(NC(=O)[C@H]2[C@H](c3cc(Cl)c(Cl)c(Cl)c3)C2(Cl)Cl)ccc1Cl (relative stereo) [PF18, trans-2-chloro-5-(2,2-dichloro-3-(3,4,5-trichloro-phenyl)cyclopropane-1-carboxamido)-N-(1-oxidotetrahydrothiophen-3-yl)-benzamide] | 50 to 100 | A (80-100) | 50 to 100
